Measured values: US11554171B2, “Compounds and methods for the targeted degradation of bromodomain-containing proteins” (Arvinas Operations, Inc., priority 2015, dated 2023)

System: c-myc in 22RV-1 cells
Assay: Human c-myc ELISA assay
Type: cell-based
Settings: Homo sapiens; for Emax: 22Rv1, 18 h, read-out: Degradation of BRD4: Maximum inhibition (%) c-Myc ELISA in 22RV1 cells; for DC50: 22Rv1, read-out: Degradation of BRD4: DC50 (uM) c-Myc ELISA in 22RV1 cells
Procedure, shortened: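 22RV-1 cells treated 18 h with 8-point 1:3 compound dilutions (final top 300 nM or 1 μM, 0.1% DMSO). Cells lysed in RIPA buffer with protease/phosphatase inhibitors, and c-myc protein in cleared lysate quantified by ELISA against a standard curve. DC50 reported for c-myc suppression.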

**Q.** What does the source list for `Cc1ncsc1-c1ccc(CNC(=O)[C@@H]2C[C@@H](O)CN2C(=O)[C@@H](NC(=O)COCCOCCOCCOc2ccc(NC(=O)C[C@@H]3N=C(c4ccc(Cl)cc4)c4c(sc(C)c4C)-n4c(C)nnc43)cc2)C(C)(C)C)cc1` [Example 11]?
**A.** Emax: 99.5%; DC50: 0.01 to 0.1 µM

**Q.** With `Cc1sc2c(c1C)C(c1ccc(Cl)cc1)=N[C@@H](CC(=O)N[C@H]1C[C@H](OC3CCN(CC(=O)N[C@H](C(=O)N4C[C@H](O)C[C@H]4C(=O)N[C@@H](C)c4ccc(-c5scnc5CO)cc4)C(C)(C)C)CC3)C1)c1nnc(C)n1-2` [Example 346] as the molecule, how does the Emax read?
**A.** The Emax was 90%.

**Q.** What about the DC50 of the same molecule?
**A.** The DC50 was 0.01 to 0.1 µM.

**Q.** How did the Emax turn out when `Cc1ncsc1-c1ccc(CNC(=O)[C@@H]2C[C@@H](O)CN2C(=O)[C@@H](NC(=O)COCCCNC(=O)C[C@@H]2N=C(c3ccc(Cl)cc3)c3c(sc(C)c3C)-n3c(C)nnc32)C(C)(C)C)cc1` [Example 44] was run?
**A.** Its Emax is 98%.

**Q.** What about the DC50 of the same molecule?
**A.** Its DC50 is 0.1 to 1 µM.

**Q.** What does the source list for `Cc1ncsc1-c1ccc([C@H](C)NC(=O)[C@@H]2C[C@@H](O)CN2C(=O)[C@H](C(C)C)n2cc(-c3ccc(N4CCN(C(=O)C[C@@H]5N=C(c6ccc(Cl)cc6)c6c(sc(C)c6C)-n6c(C)nnc65)CC4)nc3)cn2)cc1` [Example 320]?
**A.** Emax: 97.8%; DC50: < 0.01 µM

**Q.** Which results are given for `Cc1ncsc1-c1ccc(CNC(=O)[C@@H]2C[C@@H](O)CN2C(=O)[C@@H](NC(=O)COCCCOCCCOc2ccc(C3(NC(=O)C[C@@H]4N=C(c5ccc(Cl)cc5)c5c(sc(C)c5C)-n5c(C)nnc54)CC3)cc2)C(C)(C)C)cc1` [Example 27, (2S,4R)-1-[(2S)-2-[2-(3-{3-[4-(1-{2-[(9S)-7-(4-chlorophenyl)-4,5,13-trimethyl-3-thia-1,8,11,12-tetraazatricyclo[8.3.0.0^2,^6]trideca-2(6),4,7,10,12-pentaen-9-yl]acetamido}cyclopropyl)phenoxy]propoxy}propoxy)acetamido]-3,3-dimethylbutanoyl]-4-hydroxy-N-{[4-(4-methyl-1,3-thiazol-5-yl)phenyl]methyl}pyrrolidine-2-carboxamide]?
**A.** Emax: 100%; DC50: 0.01 to 0.1 µM

**Q.** With `Cc1ncsc1-c1ccc([C@H](C)NC(=O)[C@@H]2C[C@@H](O)CN2C(=O)[C@@H](NC(=O)CN2CCN(C3CC4(C3)CN(C(=O)C[C@@H]3N=C(c5ccc(Cl)cc5)c5c(sc(C)c5C)-n5c(C)nnc53)C4)[C@H](C)C2)C(C)(C)C)cc1` [Example 355] as the molecule, how does the Emax read?
**A.** Its Emax is 100%.

**Q.** What about the DC50 of the same molecule?
**A.** The DC50 was 0.01 to 0.1 µM.

**Q.** Which results are given for `Cc1ncsc1-c1ccc(CNC(=O)[C@@H]2C[C@@H](O)CN2C(=O)[C@@H](c2cc(OCCN3CC[C@H](NC(=O)C[C@@H]4N=C(c5ccc(Cl)cc5)c5c(sc(C)c5C)-n5c(C)nnc54)C3)no2)C(C)C)cc1` [Example 310]?
**A.** Emax: 94%; DC50: < 0.01 µM

**Q.** How did the Emax turn out when `Cc1ncsc1-c1ccc([C@H](C)NC(=O)[C@@H]2C[C@@H](O)CN2C(=O)[C@@H](NC(=O)COc2ccc(OCCNC(=O)C[C@@H]3N=C(c4ccc(Cl)cc4)c4c(sc(C)c4C)-n4c(C)nnc43)nc2)C(C)(C)C)cc1` [Example 128, (2S,4R)-1-[(2S)-2-(2-{[6-(2-{2-[(9S)-7-(4-chlorophenyl)-4,5,13-trimethyl-3-thia-1,8,11,12-tetraazatricyclo[8.3.0.0^2,^6]trideca-2(6),4,7,10,12-pentaen-9-yl]acetamido}ethoxy)pyridin-3-yl]oxy}acetamido)-3,3-dimethylbutanoyl]-4-hydroxy-N-[(1S)-1-[4-(4-methyl-1,3-thiazol-5-yl)phenyl]ethyl]pyrrolidine-2-carboxamide] was run?
**A.** Its Emax is 100%.

**Q.** And the DC50?
**A.** The DC50 was < 0.01 µM.

**Q.** How did the Emax turn out when `Cc1ncsc1-c1ccc([C@H](C)NC(=O)[C@@H]2C[C@@H](O)CN2C(=O)[C@@H](NC(=O)CN2C[C@H](C)N(C3CC4(C3)CN(C(=O)C[C@@H]3N=C(c5ccc(Cl)cc5)c5c(sc(C)c5C)-n5c(C)nnc53)C4)C[C@H]2C)C(C)(C)C)cc1` [Example 359] was run?
**A.** The Emax was > 90%.

**Q.** And the DC50?
**A.** The DC50 was 0.01 to 0.1 µM.

**Q.** Which results are given for `Cc1ncsc1-c1ccc(CNC(=O)[C@@H]2C[C@@H](O)CN2C(=O)[C@H](C(C)C)n2cc(-c3ccnc(O[C@@H](C)CNC(=O)C[C@@H]4N=C(c5ccc(Cl)cc5)c5c(sc(C)c5C)-n5c(C)nnc54)c3)cn2)cc1` [Example 180]?
**A.** Emax: 98.5%; DC50: 0.01 to 0.1 µM

**Q.** What does the source list for `Cc1ncsc1-c1ccc([C@H](C)NC(=O)[C@@H]2C[C@@H](O)CN2C(=O)[C@@H](NC(=O)COC/C=C\COCCNC(=O)C[C@@H]2N=C(c3ccc(Cl)cc3)c3c(sc(C)c3C)-n3c(C)nnc32)C(C)(C)C)cc1` [Example 146, (2S,4R)-1-[(2S)-2-(2-{[(2Z)-4-(2-{2-[(9S)-7-(4-chlorophenyl)-4,5,13-trimethyl-3-thia-1,8,11,12-tetraazatricyclo[8.3.0.0^2,^6]trideca-2(6),4,7,10,12-pentaen-9-yl]acetamido}ethoxy)but-2-en-1-yl]oxy}acetamido)-3,3-dimethylbutanoyl]-4-hydroxy-N-[(1S)-1-[4-(4-methyl-1,3-thiazol-5-yl)phenyl]ethyl]pyrrolidine-2-carboxamide]?
**A.** Emax: 100%; DC50: < 0.01 µM

**Q.** `Cc1ncsc1-c1ccc([C@H](C)NC(=O)[C@@H]2C[C@@H](O)CN2C(=O)[C@@H](NC(=O)CCCCOCCCNC(=O)C[C@@H]2N=C(c3ccc(Cl)cc3)c3c(sc(C)c3C)-n3c(C)nnc32)C(C)(C)C)cc1` [Example 176] was tested. Which Emax did it give?
**A.** The Emax was 90.3%.

**Q.** And the DC50?
**A.** The DC50 was < 0.01 µM.

**Q.** Which results are given for `Cc1ncsc1-c1ccc([C@H](C)NC(=O)[C@@H]2C[C@@H](O)CN2C(=O)[C@H](NC(=O)CN2CCC(O[C@H]3C[C@H](NC(=O)C[C@@H]4N=C(c5ccc(Cl)cc5)c5c(sc(C)c5C)-n5c(C)nnc54)C3)CC2)C(C)(C)C)cc1` [Example 348]?
**A.** Emax: 46%; DC50: > 1 µM

**Q.** `Cc1ncsc1-c1ccc(CNC(=O)[C@@H]2C[C@@H](O)CN2C(=O)[C@@H](NC(=O)COCCCOCCCNC(=O)C[C@@H]2N=C(c3ccc(Cl)cc3)c3c(sc(C)c3C)-n3c(C)nnc32)C(C)(C)C)cc1` [Example 46] was tested. Which Emax did it give?
**A.** Its Emax is 100%.

**Q.** And the DC50?
**A.** Its DC50 is 0.01 to 0.1 µM.

**Q.** Which Emax does the source give for `Cc1ncsc1-c1ccc([C@H](C)NC(=O)[C@@H]2C[C@@H](O)CN2C(=O)[C@@H](NC(=O)c2ccc(OC(C)CCNC(=O)C[C@@H]3N=C(c4ccc(Cl)cc4)c4c(sc(C)c4C)-n4c(C)nnc43)cn2)C(C)(C)C)cc1` (stereo partly shown) [Example 157] here?
**A.** Its Emax is 97%.

**Q.** And the DC50?
**A.** Its DC50 is < 0.01 µM.

**Q.** Which results are given for `Cc1ncsc1-c1ccc(CNC(=O)[C@@H]2C[C@@H](O)CN2C(=O)[C@@H](NC(=O)COCCOCCNC(=O)C[C@@H]2N=C(c3ccc(Cl)cc3)c3c(sc(C)c3C)-n3c(C)nnc32)C(C)(C)C)cc1` [Example 41, (2S,4R)-1-[(2S)-2-{2-[2-(2-{2-[(9S)-7-(4-chlorophenyl)-4,5,13-trimethyl-3-thia-1,8,11,12-tetraazatricyclo[8.3.0.0^2,^6]trideca-2(6),4,7,10,12-pentaen-9-yl]acetamido}ethoxy)ethoxy]acetamido}-3,3-dimethylbutanoyl]-4-hydroxy-N-{[4-(4-methyl-1,3-thiazol-5-yl)phenyl]methyl}pyrrolidine-2-carboxamide]?
**A.** Emax: 94%; DC50: 0.1 to 1 µM

**Q.** Which results are given for `Cc1ncsc1-c1ccc(CNC(=O)[C@@H]2C[C@@H](O)CN2C(=O)[C@@H](NC(=O)COCCOCCOCCCCNC(=O)C[C@@H]2N=C(c3ccc(Cl)cc3)c3c(sc(C)c3C)-n3c(C)nnc32)C(C)(C)C)cc1` [Example 51, (2S,4R)-1-[(2S)-2-(2-{2-[2-(4-{2-[(9S)-7-(4-chlorophenyl)-4,5,13-trimethyl-3-thia-1,8,11,12-tetraazatricyclo[8.3.0.0^2,^6]trideca-2(6),4,7,10,12-pentaen-9-yl]acetamido}butoxy)ethoxy]ethoxy}acetamido)-3,3-dimethylbutanoyl]-4-hydroxy-N-{[4-(4-methyl-1,3-thiazol-5-yl)phenyl]methyl}pyrrolidine-2-carboxamide]?
**A.** Emax: 97%; DC50: < 0.01 µM

**Q.** `Cc1ncsc1-c1ccc(CNC(=O)[C@@H]2C[C@@H](O)CN2C(=O)[C@H](c2cnn(CCCOCCNC(=O)C[C@@H]3N=C(c4ccc(Cl)cc4)c4c(sc(C)c4C)-n4c(C)nnc43)c2)C(C)C)cc1` [Example 145] was tested. Which Emax did it give?
**A.** Its Emax is 15.9%.

**Q.** And the DC50?
**A.** The DC50 was > 1 µM.

**Q.** For `Cc1ncsc1-c1ccc(CNC(=O)[C@@H]2C[C@@H](O)CN2C(=O)[C@H](C(C)C)n2cc(-c3ccnc(O[C@H]4C[C@H](NC(=O)C[C@@H]5N=C(c6ccc(Cl)cc6)c6c(sc(C)c6C)-n6c(C)nnc65)C4)c3)cn2)cc1` [Example 226], which Emax is on record?
**A.** The Emax was 99%.

**Q.** What about the DC50 of the same molecule?
**A.** The DC50 was 0.01 to 0.1 µM.

**Q.** `Cc1ncsc1-c1ccc(CNC(=O)[C@@H]2C[C@@H](O)CN2C(=O)[C@@H](C(C)C)n2cc(-c3ccnc(O[C@H]4C[C@@H](NC(=O)C[C@@H]5N=C(c6ccc(Cl)cc6)c6c(sc(C)c6C)-n6c(C)nnc65)C4)c3)cn2)cc1` [Example 177, (2S,4R)-4-hydroxy-N-{[4-(4-methyl-1,3-thiazol-5-yl)phenyl]methyl}-1-[(2R)-3-methyl-2-(4-{2-[(1,3-cis)-3-{2-[(9S)-7-(4-chlorophenyl)-4,5,13-trimethyl-3-thia-1,8,11,12-tetraazatricyclo[8.3.0.0^2,^6]trideca-2(6),4,7,10,12-pentaen-9-yl]acetamido}cyclobutoxy]pyridin-4-yl}-1H-pyrazol-1-yl)butanoyl]pyrrolidine-2-carboxamide] was tested. Which Emax did it give?
**A.** The Emax was 39.3%.

**Q.** What about the DC50 of the same molecule?
**A.** Its DC50 is > 1 µM.

**Q.** How did the Emax turn out when `Cc1ncsc1-c1ccc([C@H](C)NC(=O)[C@@H]2C[C@@H](O)CN2C(=O)C(C(C)C)n2cc(-c3cc(F)cc(O[C@H](C)CNC(=O)C[C@@H]4N=C(c5ccc(Cl)cc5)c5c(sc(C)c5C)-n5c(C)nnc54)c3)cn2)cc1` (stereo partly shown) [Example 213] was run?
**A.** The Emax was 94.3%.

**Q.** What about the DC50 of the same molecule?
**A.** Its DC50 is 0.01 to 0.1 µM.

**Q.** What does the source list for `Cc1ncsc1-c1ccc(CNC(=O)[C@@H]2C[C@@H](O)CN2C(=O)[C@@H](NC(=O)COCCCOc2ccc([C@@H](C)NC(=O)C[C@@H]3N=C(c4ccc(Cl)cc4)c4c(sc(C)c4C)-n4c(C)nnc43)cc2)C(C)(C)C)cc1` [Example 65]?
**A.** Emax: 95.4%; DC50: 0.01 to 0.1 µM

**Q.** What does the source list for `Cc1sc2c(c1C)C(c1ccc(Cl)cc1)=N[C@@H](CC(=O)N[C@H]1C[C@@H](Oc3ccc(OCC(=O)N[C@H](C(=O)N4C[C@H](O)C[C@H]4C(=O)N[C@@H](C)c4ccc(-n5ccnc5C)cc4)C(C)(C)C)cn3)C1)c1nnc(C)n1-2` [Example 259]?
**A.** Emax: 65.7%; DC50: 0.1 to 1 µM
